# Target: BCL6 BTB domain (Homo sapiens (Human), UniProt P41182)
# Assay: Surface plasmon resonance (SPR) assay
# Type: binding
# Conditions: BCL6 BTB domain captured on SA chip, single cycle kinetics
row,Structure (SMILES),Kd
1,Cn1cnc2c(c(-c3cc(C(N)=O)c(O)c(F)c3F)cn2CC(=O)Nc2cc(N3CCCC3)ncc2Cl)c1=O [Compound I-298],32.4 nM
2,C[C@H]1CN(C2CC2)CCN1c1cc(NC(=O)Cn2cc(-c3cc(Cl)c(O)c(C(N)=O)c3)c3c(=O)n(C)cnc32)c(Cl)cn1 [Compound I-296],33.4 nM
3,C[C@H]1COCCN1c1cc(NC(=O)Cn2cc(-c3cc(Cl)c(O)c(C(N)=O)c3)c3c(=O)n(C)cnc32)c(F)cn1 [Compound I-241],19.5 nM
4,Cn1cnc2c(c(-c3cc(F)c(O)c(C(N)=O)c3)cn2CC(=O)Nc2cc(N3CC4COCC4C3)ncc2Cl)c1=O (stereo not drawn) [Compound I-275],4.76 nM
5,C[C@H]1CN(C)CCN1c1cc(NC(=O)Cn2cc(-c3cc(C(N)=O)c(O)c(F)c3F)c3c(=O)n(CC#Cc4cnn(C)c4)cnc32)c(Cl)cn1 [Compound I-304],6.56 nM
6,C[C@H]1COCCN1c1cc(NC(=O)Cn2cc(-c3cc(Cl)c(O)c(C(N)=O)c3)c3c(=O)n(C)c(Cl)nc32)c(Cl)cn1 [Compound I-262],22.8 nM
7,CN1CCOC2CN(c3cc(NC(=O)Cn4cc(-c5cc(Cl)c(O)c(C(N)=O)c5)c5c(=O)n(C)cnc54)c(Cl)cn3)CC21 (stereo not drawn) [Compound I-329],13.4 nM
8,CC[C@@H]1CN(c2cc(NC(=O)Cn3cc(-c4cc(Cl)c(O)c(C(N)=O)c4)c4c(=O)n(C)cnc43)c(Cl)cn2)CCO1 [Compound I-202],23.9 nM
9,Cn1cnc2c(c(-c3cc(Cl)c(O)c(C(N)=O)c3)cn2CC(=O)Nc2cc(N3CCN4C(=O)OCC4C3)ncc2Cl)c1=O (stereo not drawn) [Compound I-237],17.6 nM
10,C[C@H]1CN(CCC(F)(F)F)CCN1c1cc(NC(=O)Cn2cc(-c3cc(C(N)=O)c(O)c(F)c3F)c3c(=O)n(C)cnc32)c(Cl)c(F)n1 [Compound I-464],83.8 nM
11,Cn1cnc2c(c(-c3cc(Cl)c(O)c(C(N)=O)c3)cn2CC(=O)Nc2cc3c(cc2Cl)OCCN3CCN2CCOCC2)c1=O [Compound I-213],18.6 nM
12,CN1CC2(CCN(c3cc(NC(=O)Cn4cc(-c5cc(F)c(O)c(C(N)=O)c5)c5c(=O)n(C)cnc54)c(Cl)cn3)C2)C1 [Compound I-484],40.3 nM
13,CO[C@@H]1CC(c2cc(NC(=O)Cn3cc(-c4cc(Cl)c(O)c(C(N)=O)c4)c4c(=O)n(C)cnc43)c(Cl)c(F)n2)C[C@@H]1F (stereo partly drawn) [Compound I-440],15.8 nM
14,C[C@H]1COCCN1c1cc(NC(=O)Cn2cc(-c3cc(F)c(O)c(C(N)=O)c3)c3c(=O)n(CC#Cc4cnn(C)c4)cnc32)c(Cl)cn1 [Compound I-457],13.1 nM
15,C[C@H]1COCCN1c1cc(NC(=O)Cn2cc(-c3cc(F)c(O)c(C(N)=O)c3)c3c(=O)n(C)ccc32)c(Cl)cn1 [Compound I-137],66 nM
16,CN(C)CC1COCCN1c1cc(NC(=O)Cn2cc(-c3cc(Cl)c(O)c(C(N)=O)c3)c3c(=O)n(C)cnc32)c(Cl)cn1 (stereo not drawn) [Compound I-330],39.4 nM
17,CN1CC2CC1CN2c1cc(NC(=O)Cn2cc(-c3cc(Cl)c(O)c(C(N)=O)c3)c3c(=O)n(C)cnc32)c(Cl)cn1 (stereo not drawn) [Compound I-367],41.9 nM
18,CC(C1CC1)N1CCN(c2cc(NC(=O)Cn3cc(-c4cc(C(N)=O)c(O)c(F)c4F)c4c(=O)n(C)cnc43)c(Cl)cn2)[C@@H](C)C1 (stereo partly drawn) [Compound I-393],33.6 nM
19,Cn1cnc2c(c(-c3cc(Cl)c(O)c(C(N)=O)c3)cn2CC(=O)Nc2cc3nccn3cc2Cl)c1=O [Compound I-174],2950 nM
20,CN1CCOC2(CCN(c3cc(NC(=O)Cn4cc(-c5cc(C(N)=O)c(O)c(F)c5F)c5c(=O)n(C)cnc54)c(Cl)cn3)C2)C1 (stereo not drawn) [Compound I-403],81.9 nM
21,Cc1c(N2CCOCC2)ncc(F)c1NC(=O)Cn1cc(-c2cc(Cl)c(O)c(C(N)=O)c2)c2c(=O)n(C)cnc21 [Compound I-194],120 nM

# Tested on: BCL6 reporter construct (3xBCL6-TK-Luc) in SuDHL4 cells
# Assay: Cell-based luciferase assay
# Conditions: Homo sapiens, SU-DHL-4, 48 h, read-out: Luciferase-Assay EC50, uM), SuDHL4-3xBCL6-TK-Luc cells, two days, high dose 10 uM
# Method in brief: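 SuDHL4 cells stably carrying a 3×BCL6-site TK-promoter firefly luciferase reporter, seeded at 15,000 cells/well, were dosed over a 10-point range (top 10 uM) and grown two days at 37 °C, 5% CO2. Luminescence then read after adding neolite reagent at room temperature.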
row,Structure (SMILES),EC50
1,Cn1cnc2c(c(-c3cc(C(N)=O)c(O)c(F)c3F)cn2CC(=O)Nc2cc(N3CCCC3)ncc2Cl)c1=O [Compound I-298],0.399 µM
2,C[C@H]1CN(C2CC2)CCN1c1cc(NC(=O)Cn2cc(-c3cc(Cl)c(O)c(C(N)=O)c3)c3c(=O)n(C)cnc32)c(Cl)cn1 [Compound I-296],0.271 µM
3,C[C@H]1COCCN1c1cc(NC(=O)Cn2cc(-c3cc(Cl)c(O)c(C(N)=O)c3)c3c(=O)n(C)cnc32)c(F)cn1 [Compound I-241],0.483 µM
4,Cn1cnc2c(c(-c3cc(F)c(O)c(C(N)=O)c3)cn2CC(=O)Nc2cc(N3CC4COCC4C3)ncc2Cl)c1=O (stereo not drawn) [Compound I-275],0.209 µM
5,C[C@H]1CN(C)CCN1c1cc(NC(=O)Cn2cc(-c3cc(C(N)=O)c(O)c(F)c3F)c3c(=O)n(CC#Cc4cnn(C)c4)cnc32)c(Cl)cn1 [Compound I-304],0.228 µM
6,C[C@H]1COCCN1c1cc(NC(=O)Cn2cc(-c3cc(Cl)c(O)c(C(N)=O)c3)c3c(=O)n(C)c(Cl)nc32)c(Cl)cn1 [Compound I-262],0.468 µM
7,CN1CCOC2CN(c3cc(NC(=O)Cn4cc(-c5cc(Cl)c(O)c(C(N)=O)c5)c5c(=O)n(C)cnc54)c(Cl)cn3)CC21 (stereo not drawn) [Compound I-329],0.345 µM
8,CC[C@@H]1CN(c2cc(NC(=O)Cn3cc(-c4cc(Cl)c(O)c(C(N)=O)c4)c4c(=O)n(C)cnc43)c(Cl)cn2)CCO1 [Compound I-202],0.211 µM
9,Cn1cnc2c(c(-c3cc(Cl)c(O)c(C(N)=O)c3)cn2CC(=O)Nc2cc(N3CCN4C(=O)OCC4C3)ncc2Cl)c1=O (stereo not drawn) [Compound I-237],1.04 µM
10,C[C@H]1CN(CCC(F)(F)F)CCN1c1cc(NC(=O)Cn2cc(-c3cc(C(N)=O)c(O)c(F)c3F)c3c(=O)n(C)cnc32)c(Cl)c(F)n1 [Compound I-464],0.213 µM
11,Cn1cnc2c(c(-c3cc(Cl)c(O)c(C(N)=O)c3)cn2CC(=O)Nc2cc3c(cc2Cl)OCCN3CCN2CCOCC2)c1=O [Compound I-213],0.842 µM
12,CN1CC2(CCN(c3cc(NC(=O)Cn4cc(-c5cc(F)c(O)c(C(N)=O)c5)c5c(=O)n(C)cnc54)c(Cl)cn3)C2)C1 [Compound I-484],21.6 µM
13,CO[C@@H]1CC(c2cc(NC(=O)Cn3cc(-c4cc(Cl)c(O)c(C(N)=O)c4)c4c(=O)n(C)cnc43)c(Cl)c(F)n2)C[C@@H]1F (stereo partly drawn) [Compound I-440],0.286 µM
14,C[C@H]1COCCN1c1cc(NC(=O)Cn2cc(-c3cc(F)c(O)c(C(N)=O)c3)c3c(=O)n(CC#Cc4cnn(C)c4)cnc32)c(Cl)cn1 [Compound I-457],0.328 µM
15,C[C@H]1COCCN1c1cc(NC(=O)Cn2cc(-c3cc(F)c(O)c(C(N)=O)c3)c3c(=O)n(C)ccc32)c(Cl)cn1 [Compound I-137],1.34 µM
16,CN(C)CC1COCCN1c1cc(NC(=O)Cn2cc(-c3cc(Cl)c(O)c(C(N)=O)c3)c3c(=O)n(C)cnc32)c(Cl)cn1 (stereo not drawn) [Compound I-330],0.89 µM
17,CN1CC2CC1CN2c1cc(NC(=O)Cn2cc(-c3cc(Cl)c(O)c(C(N)=O)c3)c3c(=O)n(C)cnc32)c(Cl)cn1 (stereo not drawn) [Compound I-367],5.3 µM
18,CC(C1CC1)N1CCN(c2cc(NC(=O)Cn3cc(-c4cc(C(N)=O)c(O)c(F)c4F)c4c(=O)n(C)cnc43)c(Cl)cn2)[C@@H](C)C1 (stereo partly drawn) [Compound I-393],0.266 µM
19,Cn1cnc2c(c(-c3cc(Cl)c(O)c(C(N)=O)c3)cn2CC(=O)Nc2cc3nccn3cc2Cl)c1=O [Compound I-174],10 µM
20,CN1CCOC2(CCN(c3cc(NC(=O)Cn4cc(-c5cc(C(N)=O)c(O)c(F)c5F)c5c(=O)n(C)cnc54)c(Cl)cn3)C2)C1 (stereo not drawn) [Compound I-403],5.54 µM
21,Cc1c(N2CCOCC2)ncc(F)c1NC(=O)Cn1cc(-c2cc(Cl)c(O)c(C(N)=O)c2)c2c(=O)n(C)cnc21 [Compound I-194],11 µM

# Tested on: Karpas422 cells
# Assay: Tumor cell growth inhibition assay
# Type: cell-based
# Conditions: Homo sapiens, KARPAS-422, 144 h, read-out: Tumor Growth Inhibition in Karpas-422 (IC50, uM), Karpas422 cells, six days, ATPlite
# Method in brief: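 Karpas422 cells (2,000/well) in Alpha-MEM with 10% FBS dosed across 10 concentrations (top 5 uM) and grown six days at 37° C., 5% CO2. Viability read as ATPlite luminescence.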
row,Structure (SMILES),IC50
1,Cn1cnc2c(c(-c3cc(C(N)=O)c(O)c(F)c3F)cn2CC(=O)Nc2cc(N3CCCC3)ncc2Cl)c1=O [Compound I-298],0.883 µM
2,C[C@H]1CN(C2CC2)CCN1c1cc(NC(=O)Cn2cc(-c3cc(Cl)c(O)c(C(N)=O)c3)c3c(=O)n(C)cnc32)c(Cl)cn1 [Compound I-296],0.209 µM
3,C[C@H]1COCCN1c1cc(NC(=O)Cn2cc(-c3cc(Cl)c(O)c(C(N)=O)c3)c3c(=O)n(C)cnc32)c(F)cn1 [Compound I-241],0.281 µM
4,Cn1cnc2c(c(-c3cc(F)c(O)c(C(N)=O)c3)cn2CC(=O)Nc2cc(N3CC4COCC4C3)ncc2Cl)c1=O (stereo not drawn) [Compound I-275],0.137 µM
5,C[C@H]1CN(C)CCN1c1cc(NC(=O)Cn2cc(-c3cc(C(N)=O)c(O)c(F)c3F)c3c(=O)n(CC#Cc4cnn(C)c4)cnc32)c(Cl)cn1 [Compound I-304],0.314 µM
6,C[C@H]1COCCN1c1cc(NC(=O)Cn2cc(-c3cc(Cl)c(O)c(C(N)=O)c3)c3c(=O)n(C)c(Cl)nc32)c(Cl)cn1 [Compound I-262],0.389 µM
7,CN1CCOC2CN(c3cc(NC(=O)Cn4cc(-c5cc(Cl)c(O)c(C(N)=O)c5)c5c(=O)n(C)cnc54)c(Cl)cn3)CC21 (stereo not drawn) [Compound I-329],0.173 µM
8,CC[C@@H]1CN(c2cc(NC(=O)Cn3cc(-c4cc(Cl)c(O)c(C(N)=O)c4)c4c(=O)n(C)cnc43)c(Cl)cn2)CCO1 [Compound I-202],0.156 µM
9,Cn1cnc2c(c(-c3cc(Cl)c(O)c(C(N)=O)c3)cn2CC(=O)Nc2cc(N3CCN4C(=O)OCC4C3)ncc2Cl)c1=O (stereo not drawn) [Compound I-237],1.25 µM
10,C[C@H]1CN(CCC(F)(F)F)CCN1c1cc(NC(=O)Cn2cc(-c3cc(C(N)=O)c(O)c(F)c3F)c3c(=O)n(C)cnc32)c(Cl)c(F)n1 [Compound I-464],0.421 µM
11,Cn1cnc2c(c(-c3cc(Cl)c(O)c(C(N)=O)c3)cn2CC(=O)Nc2cc3c(cc2Cl)OCCN3CCN2CCOCC2)c1=O [Compound I-213],0.878 µM
12,CN1CC2(CCN(c3cc(NC(=O)Cn4cc(-c5cc(F)c(O)c(C(N)=O)c5)c5c(=O)n(C)cnc54)c(Cl)cn3)C2)C1 [Compound I-484],10 µM
13,CO[C@@H]1CC(c2cc(NC(=O)Cn3cc(-c4cc(Cl)c(O)c(C(N)=O)c4)c4c(=O)n(C)cnc43)c(Cl)c(F)n2)C[C@@H]1F (stereo partly drawn) [Compound I-440],0.291 µM
14,C[C@H]1COCCN1c1cc(NC(=O)Cn2cc(-c3cc(F)c(O)c(C(N)=O)c3)c3c(=O)n(CC#Cc4cnn(C)c4)cnc32)c(Cl)cn1 [Compound I-457],0.183 µM
15,C[C@H]1COCCN1c1cc(NC(=O)Cn2cc(-c3cc(F)c(O)c(C(N)=O)c3)c3c(=O)n(C)ccc32)c(Cl)cn1 [Compound I-137],1.74 µM
16,CN(C)CC1COCCN1c1cc(NC(=O)Cn2cc(-c3cc(Cl)c(O)c(C(N)=O)c3)c3c(=O)n(C)cnc32)c(Cl)cn1 (stereo not drawn) [Compound I-330],0.56 µM
17,CN1CC2CC1CN2c1cc(NC(=O)Cn2cc(-c3cc(Cl)c(O)c(C(N)=O)c3)c3c(=O)n(C)cnc32)c(Cl)cn1 (stereo not drawn) [Compound I-367],3.49 µM
18,CC(C1CC1)N1CCN(c2cc(NC(=O)Cn3cc(-c4cc(C(N)=O)c(O)c(F)c4F)c4c(=O)n(C)cnc43)c(Cl)cn2)[C@@H](C)C1 (stereo partly drawn) [Compound I-393],0.222 µM
19,Cn1cnc2c(c(-c3cc(Cl)c(O)c(C(N)=O)c3)cn2CC(=O)Nc2cc3nccn3cc2Cl)c1=O [Compound I-174],10 µM
20,CN1CCOC2(CCN(c3cc(NC(=O)Cn4cc(-c5cc(C(N)=O)c(O)c(F)c5F)c5c(=O)n(C)cnc54)c(Cl)cn3)C2)C1 (stereo not drawn) [Compound I-403],3.32 µM
21,Cc1c(N2CCOCC2)ncc(F)c1NC(=O)Cn1cc(-c2cc(Cl)c(O)c(C(N)=O)c2)c2c(=O)n(C)cnc21 [Compound I-194],5.65 µM

# — patent US11518764B2, “Substituted heteroaryls as inhibitors of the BCL6 BTB domain protein-protein interaction” (Ontario Institute for Cancer Research (OICR), priority 2018, dated 2022)
